One series relates to MDA-MB-436 cells. As to the kind of experiment: CTG Protocol (MDA-MB-436 GI50), antiproliferative activity. It counts as cell-based, human. The settings on record: MDA-MB-436 cells (BRCA1 mutation), 7-day incubation, CellTiter-Glo. Here is the method: CTG Protocol (MDA-MB-436 GI50)
Antiproliferative activity of USP1 inhibitors was determined using breast cancer cell line MDA-MB-436 that harbors BRCA1 mutation. MDA-MB-436 cells (ATCC, HTB-130) was seeded with a seeding density of 1000 cells per well and 95 μL DMEM medium (Gibco, 10566016) into 96-well cell plates (Corning, 3610), and incubated overnight at 37° C. and 5% CO2. Compounds were solubilized in DMSO (Solarbio, D8371) as 10 mM stock solution, and then series diluted (3 folds) with DMSO for 9-point dose-response testing. The resulted series dilutions were then jump-diluted 50-fold by cell culture medium to afford the 20×stock solutions (containing 2% DMSO). Treatment was initiated by adding 5 μL of 20×stock solution to the assay plate and incubated at 37° C. and 5% CO2. At the end of 7-day incubation, cell assay plates were removed from incubation and equilibrated to room temperature (20 min). Then 100 μL of CellTiter-Glo (Promega, G9243) reagent, prepared per manufacturer's protocol, was added to each well, and the resulted plates were centrifuged 1,000 rpm for 1 minute, incubated at room temperature in the dark for 20 minutes, sealed with Perkin Elmer sticky film, and the luminescence signal read by Envision (Perkin Elmer).
Data analysis • a) % Inhibition was calculated using following equation: […]
X: compound concentration; Y: % Inhibition
(§1) Certain compounds were tested in the assays.
(In ATP-based viability assays light output follows the ATP content of the culture.)

Another series concerns HCC1806 Ub-PCNA (USP1). Kind of series: USP1 Western Blot Protocol (HCC1806 Ub-PCNA). It counts as cell-based. The settings on record: HCC1806 cells, 4 hours.
Source text: USP1 Western Blot Protocol (HCC1806 Ub-PCNA)
USP1 is a deubiquitinase that catalyze the hydrolysis of iso-peptide bond between ubiquitin and the substrate proteins. Inhibition of USP1 activity results in accumulation of mono-ubiquitinated substrate such as Ub-PCNA. A cell assay was set up to determine the cellular potency of USP1 compounds by monitoring the accumulation of Ub-PCNA. The signal intensity was detected by a specific Ub-PCNA antibody through Western-blot analysis.
The assay was initiated by seeding HCC1806 cells (ATCC, CRL-2335) into 6-well plates (Corning, 3516), with a seeding density of 3×10^5 cells per well and 2 mL RPMI 1640 culture medium (Gibco, 11875119). The plates were incubated overnight at 37° C. and 5% CO2. Compounds, solubilized in DMSO (Solarbio, D8371) as 1 mM stock solution, were diluted in 4-fold steps for 5-cencentration point dose response plus a no-compound DMSO control. Diluted compounds (2 μL) were transferred into assay wells (with a final DMSO concentration of −0.1%) and the resulted assay plates incubated at 37° C. and 5% CO2 for 4 hours. After aspiration of culture medium, 100 μL of 4° C. RIPA lysis buffer (Boston BioProducts, BP-115D) supplemented with vendor recommended concentrations of protease (Roche, 4693116001) and phosphatase (Roche, 4906837001) inhibitor, was added to each well and incubated for 10 minutes on the ice. Cells were scrapped loose from the bottom of well with a scraper (Corning, 3008), transferred into a 600 μL EP tube, sonicated using Ultrasound (Qsonica, Q800R3, with 30% energy, 5-second pulse on/off cycles at 4° C., for total 2 minutes), centrifuged 13,000 rpm for 15 minutes at 4° C., and then the supernatant transferred to a new 600 μL EP tube. The total protein concentration was determined using BCA kit following vendor recommended protocol (Solarbio, PC0020-500). Loading samples were prepared by diluting the total protein concentration to 1.5 μg/μL with 5 X NuPAGE SDS loading buffer (Beyotime, P0015L) and RIPA lysis buffer, and boiling at 100° C. for 5 minutes.
15 μg protein from each sample was loaded onto NuPAGE® Novex 4-12% Bis-Tris Midi Gel, 26 W (Invitrogen, WG1403BOX) and electrophoresis was run at 80 V for 30 minutes and 120 V till the end using 1x NuPAGE® MOPS SDS Running Buffer (Novex, NP0001). The gel was then transferred to nitrocellulose membrane using the dry transfer system (iBlot 2 Transfer Stacks, nitrocellulose, D323001) with a program consisting of 20 V for 1 minute, 23 V for 4 minutes and 25 V for 2 minutes. After the membrane was blocked with 5% BSA (Solarbio, A8020) in 1X TBST (CST, 9997S) for 1 hour at room temperature, specific antibodies (Ubiquityl-PCNA antibody (CST, 13439) at 1:500 dilution, PCNA antibody (Santa Cruz, sc-56) at 1:1000 dilution, and GAPDH (CST, 5174) at 1:2000 dilution in 1 X TBST containing 1% BSA) were added and incubated at room temperature for 1.5 hours. After washing the Nitrocellulose membranes with 1 X TBST for 3 times, 10 minutes each time at room temperature, fluorescently labeled secondary antibodies (anti-rabbit IgG, Licor, 926-32211; anti-mouse IgG, LI-COR, 926-68070) at 1:5000 dilution in 1 X TBST containing 1% BSA were added and incubated for 1 hour at room temperature in the dark. The membranes were then rinsed with 1 X TBST and immersed in the RO water. Imaging of band intensity was acquired with Li—COR imaging system (Li—COR, Odyssey clx ES).
Percentage of USP1 inhibition (% Vehicle) was calculated by using following equation examining Ub-PCNA upregulation:
And IC50 was calculated using four-parameter logistic fitting program • Y=Bottom+(Top-Bottom)/(1+10 {circumflex over (()}(LogIC50−X)*Hill Slope)) • X=Log of dose or concentration
as §1
On the technique in general: Immunoblotting shows a protein as a band on a membrane.

The nature of series [1]: Liver microsomal stability (HLM). Type of series: in vitro ADME. The settings on record: human, liver microsomes, human liver microsomes 0.5 mg/mL, 1 μM compound, NADPH. How it is done: Liver Microsomal Stability
Certain Compounds of the Disclosure were assessed for ADME metabolic stability in human liver microsomes (HLM).
Samples were prepared by adding 222.5 μL of a master solution (100 mM phosphate buffer and 0.5 mg/mL liver microsomes (HLM)) and 25 μL of a 10 mM NADPH solution to incubation plates, which were then warmed for 10 min. Each compound was separately dissolved in DMSO to prepare 10 mM stock solutions, which were then diluted to 100 μM with acetonitrile. A reaction was started by adding 2.5 μL of the […] solution of each compound to separate incubation plates such that the final concentration of for each compound in each plate was 1 μM. Aliquots of 30 μL were taken from the reaction solution at 0.5, 5, 15, 30 and 60 minutes. The reaction was stopped by the addition of 5 volumes of cold acetonitrile with IS (100 nM alprazolam, 200 nM caffeine and 100 nM tolbutamide). Aliquot of 100 μL of the supernatant was diluted by 100 μL ultra-pure water, and the mixture was used for LC/MS/MS analysis. Peak areas were determined from extracted ion chromatograms. […]. The percentage of remaining parent was calculated from peak area of test compound or PC. The slope value, k, is determined by linear regression of the natural logarithm of percent parent remaining vs. incubation time curve. All calculations are carried out using Microsoft Excel.
The in vitro half-life (in vitro t1/2) is determined from the slope value:
Conversion of the in vitro t1/2 (in min) into the in vitro intrinsic clearance (in vitro CLint, (HLM Clint (μL/min/mg proteins))) is done using the following equation: […]
A: HLM Clint <10 μL/min/mg; B: 10 μL/min/mg≤HLM Clint <50 μL/min/mg; C: HLM Clint ≥50 μL/min/mg.
For orientation: Liver microsomes are a subcellular fraction often used to study metabolism.

`[2H]C([2H])([2H])n1cc(C(F)(F)F)nc1-c1ccc(C([2H])([2H])n2c(=O)ccc3cnc(-c4c(OC)ncnc4C4CC4)nc32)cc1` [Compound I-37, 2-(4-Cyclopropyl-6-Methoxypyrimidin-5-Yl)-8-({4-[1-(2H3)Methyl-4-(Trifluoromethyl)Imidazol-2-Yl]Phenyl}(2H2)Methyl)Pyrido[2,3-d]Pyrimidin-7-One] registered a GI50 in the series on MDA-MB-436 cells (Homo sapiens, 168 h) of 10 to 100 nM. Further, the 50% inhibitory concentration (IC50) in the series with HCC1806 Ub-PCNA (USP1) (Homo sapiens) was 10 to 100 nM. This compound returned a microsomal CLint at 1 μM in series [1] of 10 to 50 µL/min/mg.
In the case of `[2H]C([2H])([2H])Oc1ncnc(C2CC2)c1-c1ncc2ccc(=O)n(C([2H])([2H])c3ccc(-c4nc(C(F)(F)F)cn4C([2H])([2H])[2H])cc3)c2n1` [Compound I-57], the intrinsic metabolic clearance (microsomal CLint) at 1 μM in series [1] fell in the range of 10 to 50 µL/min/mg.
Still for that read-out and setting: with `COc1ncnc(C2CC2)c1-c1ncc2ccc(=O)n(Cc3ccc(-c4nc(C(F)(F)F)cn4C)cc3)c2n1` [Compound I-1, 2-(4-Cyclopropyl-6-Methoxypyrimidin-5-Yl)-8-({4-[1-Methyl-4-(Trifluoromethyl)Imidazol-2-Yl]Phenyl}Methyl)Pyrido[2,3-d]Pyrimidin-7-One] the figure was 10 to 50 µL/min/mg; with `COc1ncnc(C2CC2)c1-c1cc2c(ccc(=O)n2Cc2ccc(-c3nc(C(F)(F)F)cn3C)cc2)cn1` [Compound I-11, 7-(4-Cyclopropyl-6-Methoxypyrimidin-5-Yl)-1-({4-[1-Methyl-4-(Trifluoromethyl)Imidazol-2-Yl]Phenyl}Methyl)-1,6-Naphthyridin-2-One], 10 to 50 µL/min/mg.
Take `COc1ncnc(C2CC2)c1-c1ncc2cc(C)c(=O)n(Cc3ccc(-c4nc(C(F)(F)F)cn4C)cc3)c2n1` [Compound 78, 2-(4-cyclopropyl-6-methoxypyrimidin-5-yl)-6-methyl-8-({4-[1-methyl-4-(trifluoromethyl)imidazo]-2-yl]phenylmethyl)pyrido[2,3-d]pyrimidin-7-one]: the 50% growth inhibitory concentration (GI50) in the series with MDA-MB-436 cells lay within 10 to 100 nM. Also, the concentration for half-maximal inhibition (IC50) in the series with HCC1806 Ub-PCNA (USP1) fell in the range of 10 to 100 nM.
The compound `CCc1ncnc(C2CC2)c1-c1ncc2ccc(=O)n(Cc3ccc(-c4nc(C(F)(F)F)cn4C)cc3)c2n1` [Compound 52, 2-(4-Cyclopropyl-6-Ethylpyrimidin-5-Yl)-8-({4-[1-Methyl-4-(Trifluoromethyl)Imidazol-2-Yl]Phenyl}Methyl)Pyrido[2,3-d]Pyrimidin-7-One] returned a concentration for 50% growth inhibition (GI50) in the series with MDA-MB-436 cells (Homo sapiens, 168 h) of 100 to 1000 nM. Further, in the series with HCC1806 Ub-PCNA (USP1) (Homo sapiens), the IC50 lay within 100 to 1000 nM.
`COc1ncnc(C2CC2)c1-c1ncc2cc(Cl)c(=O)n(Cc3ccc(-c4nc(C(F)(F)F)cn4C)cc3)c2n1` [Compound 79, 6-Chloro-2-(4-Cyclopropyl-6-Methoxypyrimidin-5-Yl)-8-({4-[1-Methyl-4-(Trifluoromethyl)Imidazol-2-Yl]Phenyl}Methyl)Pyrido[2,3-d]Pyrimidin-7-One]: the GI50 in the series with MDA-MB-436 cells (Homo sapiens, 168 h) fell in the range of 10 to 100 nM. In addition, in the series with HCC1806 Ub-PCNA (USP1) (Homo sapiens), the half-maximal inhibitory concentration (IC50) was in the range of 10 to 100 nM.
In the series on MDA-MB-436 cells (Homo sapiens, 168 h), `COc1ncnc(C2CC2)c1-c1ncc2ccc(=O)n(Cc3ccc(-c4nc(C(F)(F)F)cn4C)cn3)c2n1` [Compound 88, 2-(4-Cyclopropyl-6-Methoxypyrimidin-5-Yl)-8-({5-[1-Methyl-4-(Trifluoromethyl)Imidazol-2-Yl]Pyridin-2-Yl}Methyl)Pyrido[2,3-d]Pyrimidin-7-One] came in with a concentration for 50% growth inhibition (GI50) above 1000 nM. This compound had an IC50 in the series on HCC1806 Ub-PCNA (USP1) (Homo sapiens) of 10 to 100 nM.
For `COc1ncnc(C2CC2)c1-c1ncc2cc(-c3nnc(C)n3C)c(=O)n(Cc3ccc(-c4nc(C(F)(F)F)cn4C4CC4)cc3)c2n1` [Compound I-149, 8-({4-[1-Cyclopropyl-4-(Trifluoromethyl)Imidazol-2-Yl]Phenyl}Methyl)-2-(4-Cyclopropyl-6-Methoxypyrimidin-5-Yl)-6-(4,5-Dimethyl-1,2,4-Triazol-3-Yl)Pyrido[2,3-d]Pyrimidin-7-One], in that order: 10 to 100 nM and 10 to 100 nM.
The matching figures for `COc1ncnc(C2CC2)c1-c1ncc2cc(-c3cnn(C)c3)c(=O)n(Cc3ccc(-c4nc(C(F)(F)F)cn4C)cc3)c2n1` [Compound 64]: 10 to 100 nM and 10 to 100 nM.
As to `COc1ncnc(C2CC2)c1-c1ncc2ncc(=O)n(Cc3ccc(-c4nc(C(F)(F)F)cn4C(C)C)cc3)c2n1` [Compound I-29], in the series with MDA-MB-436 cells (Homo sapiens, 168 h), the GI50 is below 10 nM. Besides, in the series on HCC1806 Ub-PCNA (USP1) (Homo sapiens), the IC50 is below 10 nM.
On to `COc1ncnc(C2CC2)c1-c1ncc2ccc(=O)n(Cc3ccc(-c4nc(C(F)(F)F)cn4C4COC4)cc3)c2n1` [Compound I-59], for which the microsomal CLint at 1 μM in series [1] lay within 10 to 50 µL/min/mg.
`COc1ncnc(C2CC2)c1-c1ncc2ccc(=O)n(C(C)c3ccc(-c4nc(C(F)(F)F)cn4C)cc3)c2n1` (stereo not drawn) [Compound 62] yielded a GI50 in the series with MDA-MB-436 cells of 10 to 100 nM. In the series on HCC1806 Ub-PCNA (USP1), this compound showed a half-maximal inhibitory concentration (IC50) of 10 to 100 nM.
For the compound `COc1ncnc(C2CC2)c1-c1ncc2ncc(=O)n(Cc3ccc(-c4nc(C(F)(F)F)cn4C)cc3)c2n1` [Compound I-17, 2-(4-cyclopropyl-6-methoxypyrimidin-5-yl)-8-({4-[1-methyl-4-(trifluoromethyl)imidazol-2-yl]phenyl}methyl) pteridin-7-one], the microsomal CLint at 1 μM in series [1] fell in the range of 10 to 50 µL/min/mg.

A word on the GI50: it is the concentration giving 50% growth inhibition. In general, IC50 refers to the concentration that gives 50% inhibition. Low readings indicate greater potency, high ones weaker potency. The microsomal CLint is a measure of how fast metabolising enzymes remove a compound, apart from limits set by blood flow. Low values mean slow turnover, high ones rapid turnover.

The values are drawn from patent publication US20240092779A1, “USP1 INHIBITORS AND USES THEREOF” (Zentaur Therapeutics USA Inc., priority 2022, published 2024).
